# Values joined by “and” are separate entries in the source; they are usually repeats but may differ in a detail not shown here. Equal entries are not always repeated.
# Tested on: 857933-349-R-J2-PDC complex spheroid viability
# Experiment: Anticancer human tumor 857933-349-R-J2-PDC patient-derived colon adenocarcinoma cell line growth inhibition [POLQ]
# Conditions: for viability, T/C: stronger effect = lower value
# Procedure: Multicellular complex tumor spheroid response to Polymerase (POL) inhibitors (novobiocin, ART-558, RP6685) in combination with a variety of drugs and investigational agents in selected tumor cell lines
# The POL inhibitors (novobiocin, ART-558, and RP6685) were evaluated both individually and in combination with standard of care and investigational anticancer small molecules within a complex spheroid model of solid tumors. . Complex spheroids include a stromal component modeled by human endothelial cells (HUVEC) and fibroblasts modeled by human mesenchymal stem cells (MSCs). The concentration ranges selected for each drug and investigational agent were based upon clinically achievable concentrations if the clinical Cmax of the agent was known.
# Compounds. The drugs and investigational agents: novobiocin (NSC847541), ART-558 (NSC835418), RP-6685 (NSC848927), peposertib (NSC802822), ceralasertib (NSC780249), elimusertib (NSC800525), camonsertib (NSC841442), AZD-1390 (NSC803789), olaparib (NSC753686), talazoparib (NSC767125), rucaparib (NSC756644), sotorasib (NSC818433), MRTX-1133 (NSC836407), SN-38 (NSC673596), topotecan (NSC609699), epotoside (NSC141540), doxorubicin (NSC123127), gemcitabine (NSC613327), 5-fluorouracil (NSC19893), paclitaxel (NSC125973), vemurafenib (NSC761431), MSA-2 (NSC828583), SN-011 (NSC837082), adavosertib (NSC754352), prexasertib (NSC758257), carboplatin (NSC241240) and oxaliplatin (NSC266046), were obtained from the National Cancer Institute (NCI) Developmental Therapeutics Program Chemical Repository (21). The FDA-approved anticancer drug set is available from the Developmental Therapeutics Program at https://dtp.cancer.gov/organization/dscb/obtaining/. […] The stock solutions were prepared in dimethyl sulfoxide (DMSO, Sigma-Aldrich, St. Louis, MO, cat. D2650), except for the platinum compounds which were prepared in saline (Quality Biological, Gaithersburg, MD, cat. 114-055-101), at 800-fold the tested concentration and stored at -70 degrees C prior to their use. All drugs and investigational agents were tested over a range starting from a high concentration at or near the clinical Cmax and decreasing in half-log increments. If the clinical Cmax for an agent had not been determined, the highest concentration tested was 10 microM, except for SN-38, which was tested at a high concentration of 1 microM.
# Cell Culture. All cells were maintained in an incubator at 37 degrees C and 5% CO2 with 95% humidity. The PDC lines were cultured according to standard operating procedures established by the NCI PDMR (https://pdmr.cancer.gov). Table 3 of the manuscript, lists the cell lines along with the number of the three cell types plated to form the mct-spheroids and media for tumor cell growth. After thawing, all PDC lines, except 997537-175-T-J1-PDC and 415267-285-R-J2-PDC, were cultured in Matrigel-coated flasks prepared with a working solution of 1X Ham's F-12 nutrient mix, without supplementation (Thermo Fisher Scientific, cat. 11765054), 100 U/mL penicillin-streptomycin (Thermo Fisher Scientific, cat. 15140122), and 2.5% Matrigel (Corning Inc., Corning, NY, cat. 354248) for the first three passages. The two PDC lines 997537-175-T-J1-PDC and 415267-285-R-J2-PDC were cultured on uncoated flasks. The 857933-349-R-J2-PDC line was cultured in 6C/Colon 1B media containing advanced DMEM/F-12 (Thermo Fisher Scientific, cat. 12634028), 10 mM HEPES (Thermo Fisher Scientific, cat. 15630080), 1X GlutaMAX supplement (Thermo Fisher Scientific, cat. 35050061), 0.1 mg/mL primocin (InvivoGen, San Diego, CA, cat. ant-pm-2), 10% defined fetal bovine serum, heat inactivated (HyClone Laboratories Inc., Logan, UT, cat. SH30070.03HI), 50% L-WRN conditioned media (ATCC, cat. CRL-3276), 1.25 mM N-Acetyl-L-cysteine (Sigma-Aldrich, cat. A9165), 10 mM nicotinamide (Sigma-Aldrich, cat. N0636), 1X B-27 supplement (Thermo Fisher Scientific, cat. 17504044), 1X N-2 supplement (Thermo Fisher Scientific, cat. […]
# [1] = curve of first compound, second compound 0.0316 µM
# [2] = curve of first compound, second compound 0.1 µM
# [3] = curve of first compound, second compound 0.316 µM
# [4] = curve of first compound, second compound 1 µM
# [5] = curve of first compound, second compound 3.16 µM
# [6] = curve of first compound, second compound 10 µM
# [7] = second compound 0.0316 µM, first compound 0.0316 µM
# [8] = second compound 0.0316 µM, first compound 0.1 µM
# [9] = second compound 0.0316 µM, first compound 0.316 µM
# [10] = second compound 0.0316 µM, first compound 1 µM
# [11] = second compound 0.0316 µM, first compound 3.16 µM
# [12] = second compound 0.0316 µM, first compound 10 µM
# [13] = second compound 0.1 µM, first compound 0.0316 µM
# [14] = second compound 0.1 µM, first compound 0.1 µM
# [15] = second compound 0.1 µM, first compound 0.316 µM
# [16] = second compound 0.1 µM, first compound 1 µM
# [17] = second compound 0.1 µM, first compound 3.16 µM
# [18] = second compound 0.1 µM, first compound 10 µM
# [19] = second compound 0.316 µM, first compound 0.0316 µM
# [20] = second compound 0.316 µM, first compound 0.1 µM
# [21] = second compound 0.316 µM, first compound 0.316 µM
# [22] = second compound 0.316 µM, first compound 1 µM
# [23] = second compound 0.316 µM, first compound 3.16 µM
# [24] = second compound 0.316 µM, first compound 10 µM
# [25] = second compound 1 µM, first compound 0.0316 µM
# [26] = second compound 1 µM, first compound 0.1 µM
# [27] = second compound 1 µM, first compound 0.316 µM
# [28] = second compound 1 µM, first compound 1 µM
# [29] = second compound 1 µM, first compound 3.16 µM
# [30] = second compound 1 µM, first compound 10 µM
# [31] = second compound 3.16 µM, first compound 0.0316 µM
# [32] = second compound 3.16 µM, first compound 0.1 µM
# [33] = second compound 3.16 µM, first compound 0.316 µM
# [34] = second compound 3.16 µM, first compound 1 µM
# [35] = second compound 3.16 µM, first compound 3.16 µM
# [36] = second compound 3.16 µM, first compound 10 µM
# [37] = second compound 10 µM, first compound 0.0316 µM
# [38] = second compound 10 µM, first compound 0.1 µM
# [39] = second compound 10 µM, first compound 0.316 µM
# [40] = second compound 10 µM, first compound 1 µM
# [41] = second compound 10 µM, first compound 3.16 µM
# [42] = second compound 10 µM, first compound 10 µM
# 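Further: spheroids exposed to compounds for seven days before readout.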
compound,measurement,setting,value
C=CC(=O)N1CCN(c2nc(=O)n(-c3c(C)ccnc3C(C)C)c3nc(-c4c(O)cccc4F)c(F)cc23)C(C)C1 (stereo not drawn),"viability, T/C",compound 0.0316 µM,82% and 96.3% and 96.5%
same,"viability, T/C",compound 0.1 µM,103% and 96.2% and 101%
same,"viability, T/C",compound 0.316 µM,97.5% and 113% and 80.8%
same,"viability, T/C",compound 1 µM,101% and 99.1% and 91.3%
same,"viability, T/C",compound 3.16 µM,94.3% and 103% and 92.1%
same,"viability, T/C",compound 10 µM,117% and 103% and 94.6%
same,IC50,curve of compound,> 10 µM
CC1COCCN1c1cc(C2(S(C)(=N)=O)CC2)nc(-c2ccnc3[nH]ccc23)n1 (stereo not drawn),"viability, T/C",compound 0.0316 µM,87.6% and 102% and 103%
same,"viability, T/C",compound 0.1 µM,88.4% and 105% and 117%
same,"viability, T/C",compound 0.316 µM,101% (2×) and 81.7%
same,"viability, T/C",compound 1 µM,77.9% and 69% and 76.1%
same,"viability, T/C",compound 3.16 µM,59.6% and 68.9% and 62.7%
same,"viability, T/C",compound 10 µM,33.2% and 55.2% and 42.2%
same,IC50,curve of compound,4.65 µM and > 10 µM and 6.26 µM
CC(C)n1c(=O)n(C)c2cnc3cc(F)c(-c4ccc(OCCCN5CCCCC5)nc4)cc3c21 + COC1C(OC(N)=O)C(O)C(Oc2ccc3c(O)c(NC(=O)c4ccc(O)c(CC=C(C)C)c4)c(=O)oc3c2C)OC1(C)C,IC50,[1],> 10 µM
same,IC50,[2],> 10 µM
same,IC50,[3],> 10 µM
same,IC50,[4],> 10 µM
same,IC50,[5],> 10 µM
same,IC50,[6],> 10 µM
same,"viability, T/C",[7],102%
same,"viability, T/C",[8],108%
same,"viability, T/C",[9],97.3%
same,"viability, T/C",[10],105%
same,"viability, T/C",[11],109%
same,"viability, T/C",[12],111%
same,"viability, T/C",[13],113%
same,"viability, T/C",[14],118%
same,"viability, T/C",[15],100%
same,"viability, T/C",[16],95%
same,"viability, T/C",[17],121%
same,"viability, T/C",[18],100%
same,"viability, T/C",[19],87.2%
same,"viability, T/C",[20],120%
same,"viability, T/C",[21],93.1%
same,"viability, T/C",[22],85.1%
same,"viability, T/C",[23],84.1%
same,"viability, T/C",[24],105%
same,"viability, T/C",[25],74.4%
same,"viability, T/C",[26],110%
same,"viability, T/C",[27],103%
same,"viability, T/C",[28],98.3%
same,"viability, T/C",[29],87.8%
same,"viability, T/C",[30],122%
same,"viability, T/C",[31],110%
same,"viability, T/C",[32],112%
same,"viability, T/C",[33],111%
same,"viability, T/C",[34],89%
same,"viability, T/C",[35],122%
same,"viability, T/C",[36],123%
same,"viability, T/C",[37],89.6%
same,"viability, T/C",[38],115%
same,"viability, T/C",[39],106%
same,"viability, T/C",[40],104%
same,"viability, T/C",[41],85.7%
same,"viability, T/C",[42],114%
COC1C(OC(N)=O)C(O)C(Oc2ccc3c(O)c(NC(=O)c4ccc(O)c(CC=C(C)C)c4)c(=O)oc3c2C)OC1(C)C (stereo not drawn),IC50,"compound alone, run of 01/08/2024",> 10 µM
Nc1ccn(C2OC(CO)C(O)C2(F)F)c(=O)n1 (stereo not drawn),"viability, T/C",compound 0.0316 µM,73.9% and 60.7% and 67.2%
same,"viability, T/C",compound 0.1 µM,59.8% and 43.2% and 55.4%
same,"viability, T/C",compound 0.316 µM,25.9% and 10.6% and 33.7%
same,"viability, T/C",compound 1 µM,19.8% and 9.28% and 16.4%
same,"viability, T/C",compound 3.16 µM,13% and 7.52% and 11.1%
same,"viability, T/C",compound 10 µM,10.5% and 5.88% and 9.87%
same,IC50,curve of compound,0.139 µM and 0.0638 µM and 0.134 µM
COc1cc2cc(C(=O)CCC(=O)O)sc2cc1OC + COC1C(OC(N)=O)C(O)C(Oc2ccc3c(O)c(NC(=O)c4ccc(O)c(CC=C(C)C)c4)c(=O)oc3c2C)OC1(C)C,IC50,[1],> 10 µM
same,IC50,[2],> 10 µM
same,IC50,[3],> 10 µM
same,IC50,[4],> 10 µM
same,IC50,[5],> 10 µM
same,IC50,[6],> 10 µM
same,"viability, T/C",[7],82%
same,"viability, T/C",[8],98.3%
same,"viability, T/C",[9],79.9%
same,"viability, T/C",[10],79%
same,"viability, T/C",[11],106%
same,"viability, T/C",[12],93.8%
same,"viability, T/C",[13],91.4%
same,"viability, T/C",[14],95.5%
same,"viability, T/C",[15],98.1%
same,"viability, T/C",[16],79.2%
same,"viability, T/C",[17],92.5%
same,"viability, T/C",[18],111%
same,"viability, T/C",[19],104%
same,"viability, T/C",[20],102%
same,"viability, T/C",[21],84%
same,"viability, T/C",[22],97.2%
same,"viability, T/C",[23],84.4%
same,"viability, T/C",[24],79.7%
same,"viability, T/C",[25],110%
same,"viability, T/C",[26],112%
same,"viability, T/C",[27],103%
same,"viability, T/C",[28],94.2%
same,"viability, T/C",[29],110%
same,"viability, T/C",[30],122%
same,"viability, T/C",[31],90.6%
same,"viability, T/C",[32],91.1%
same,"viability, T/C",[33],86.6%
same,"viability, T/C",[34],77.4%
same,"viability, T/C",[35],84.1%
same,"viability, T/C",[36],90%
same,"viability, T/C",[37],76.4%
same,"viability, T/C",[38],98.1%
same,"viability, T/C",[39],108%
same,"viability, T/C",[40],116%
same,"viability, T/C",[41],112%
same,"viability, T/C",[42],91.9%
O=C(c1cc(Cc2n[nH]c(=O)c3ccccc23)ccc1F)N1CCN(C(=O)C2CC2)CC1,"viability, T/C",compound 0.0316 µM,110% and 84.9% and 98.6%
same,"viability, T/C",compound 0.1 µM,108% and 96.5% and 87.8%
same,"viability, T/C",compound 0.316 µM,96.2% and 105% and 95.9%
same,"viability, T/C",compound 1 µM,101% and 98.2% and 108%
same,"viability, T/C",compound 3.16 µM,94.1% and 79.9% and 110%
same,"viability, T/C",compound 10 µM,72.3% and 76.5% and 84.3%
same,IC50,curve of compound,> 10 µM
